Patent US20040110787A1, “Heteroaryl-ethanolamine derivatives as antiviral agents” (priority 2002, published 2004)
pIC50: −log10 of the molar value. Where two headings read alike, the source gives them in different places.

What was measured:
VZV polymerase = VZV polymerase (Varicella-zoster virus, UniProt P09252); assay: VZV polymerase assay (Table 1); type: biochemical
HCMV polymerase = target: T1, HCMV polymerase (Human cytomegalovirus, UniProt P08546); assay: HCMV polymerase scintillation proximity assay (SPA); type: biochemical
T1 construct: made in house; host or cells: recombinant baculovirus-infected SF-9 cells
Method: The HCMV polymerase assay is performed using a scintillation proximity assay (SPA) as described in several references, such as N. D. Cook, et al., Pharmaceutical Manufacturing International, pages 49-53 (1992); K Takeuchi, Laboratory Practice, September issue (1992); U.S. Pat. No. 4,568,649 (1986); which are incorporated by reference herein. Reactions are performed in 96-well plates. The assay is conducted in 100 μl volume with 5.4 mM HEPES (pH 7.5), 11.7 mM KCl, 4.5 mM MgCl2, 0.36 mg/ml BSA, and 90 nM ^3H-dTTP. Assays are run with and without CHAPS, (3-[(3-Cholamidopropyl)-dimethylammonio]-1-propane-sulfonate) at a final concentration of 2 mM. HCMV polymerase is diluted in enzyme dilution buffer containing 50% glycerol, 250 mM NaCl, 10 mM HEPES (pH 7.5), 100 μg/ml BSA, and 0.01% sodium azide. The HCMV polymerase, which is expressed in, recombinant baculovirus-infected SF-9 cells and purified according to literature procedures, is added at 10% (or 10 μl) of the final reaction volume, i.e., 100 μl. Compounds are diluted in 50% DMSO and 10 μl are added to each well. Control wells contain an equivalent concentration of DMSO. Unless noted otherwise, reactions are initiated via the addition of 6 nM biotinylated poly(dA)-oligo(dT) template/primer to reaction mixtures containing the enzyme, substrate, and compounds of interest. Plates are incubated in a 25° C. or 37° C. H2O bath and terminated via the addition of 40 μl/reaction of 0.5 M EDTA (pH 8) per well. Reactions are terminated within the time-frame during which substrate incorporation is linear and varied depending upon the enzyme and conditions used, i.e., 30 min. for HCMV polymerase. Ten (10) 10 μL of streptavidin-SPA beads (20 mg/ml in PBS/10% glycerol) are added following termination of the reaction. Plates are incubated 10 min. at 37° C., then equilibrated to room temperature, and counted on a Packard Topcount. Linear regressions are performed and IC50's are calculated using computer software.
A modified version of the above HCMV polymerase assay is performed as described above, but with the following changes: Compounds are diluted in 100% DMSO until final dilution into assay buffer. In the previous assay, compounds are diluted in 50% DMSO. 4.5 mM Dithiothreitol (DTT) is added to the polymerase buffer.
All results are listed as Polymerase IC50 ([…]) values. In Table 1, the term “n.d.” refers to activity data not determined.

HSV polymerase = HSV polymerase (Human herpesvirus 1, UniProt P04293); assay: HSV polymerase assay (Table 1); type: biochemical
[1] = HCMV polymerase, SPA, read-out: Polymerase IC50 HCMV

Sequence of HSV polymerase (P04293 whole entry): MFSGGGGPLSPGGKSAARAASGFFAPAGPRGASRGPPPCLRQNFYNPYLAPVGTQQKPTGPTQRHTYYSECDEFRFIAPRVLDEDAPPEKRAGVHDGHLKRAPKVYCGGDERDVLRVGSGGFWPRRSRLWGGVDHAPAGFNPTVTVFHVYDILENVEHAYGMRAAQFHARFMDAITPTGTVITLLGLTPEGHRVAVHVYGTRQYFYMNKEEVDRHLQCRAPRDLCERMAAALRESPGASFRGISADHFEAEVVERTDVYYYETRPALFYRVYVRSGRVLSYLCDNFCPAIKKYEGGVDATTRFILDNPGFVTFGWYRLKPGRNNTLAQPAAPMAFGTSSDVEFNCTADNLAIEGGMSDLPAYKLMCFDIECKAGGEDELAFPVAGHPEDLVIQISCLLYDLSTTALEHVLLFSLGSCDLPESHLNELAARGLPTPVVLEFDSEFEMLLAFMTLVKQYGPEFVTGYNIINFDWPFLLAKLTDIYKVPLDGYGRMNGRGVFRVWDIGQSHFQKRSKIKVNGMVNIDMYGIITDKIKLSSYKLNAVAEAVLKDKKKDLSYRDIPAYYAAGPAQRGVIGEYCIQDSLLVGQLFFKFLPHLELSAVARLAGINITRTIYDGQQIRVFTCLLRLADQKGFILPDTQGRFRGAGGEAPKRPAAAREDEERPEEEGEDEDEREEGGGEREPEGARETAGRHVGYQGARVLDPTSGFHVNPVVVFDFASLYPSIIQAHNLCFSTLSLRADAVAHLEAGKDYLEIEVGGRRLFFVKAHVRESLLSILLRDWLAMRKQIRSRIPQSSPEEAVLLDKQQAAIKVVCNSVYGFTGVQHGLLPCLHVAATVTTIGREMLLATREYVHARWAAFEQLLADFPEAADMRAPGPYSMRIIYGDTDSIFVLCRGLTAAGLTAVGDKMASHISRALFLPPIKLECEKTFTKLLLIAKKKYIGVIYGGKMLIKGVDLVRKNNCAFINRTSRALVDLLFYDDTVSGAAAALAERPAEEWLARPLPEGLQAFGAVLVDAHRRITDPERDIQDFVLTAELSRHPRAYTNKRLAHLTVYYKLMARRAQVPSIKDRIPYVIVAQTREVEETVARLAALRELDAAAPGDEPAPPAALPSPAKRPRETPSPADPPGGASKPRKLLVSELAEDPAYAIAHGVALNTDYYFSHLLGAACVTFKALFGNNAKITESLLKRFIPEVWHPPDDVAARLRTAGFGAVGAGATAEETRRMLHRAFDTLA
Sequence of VZV polymerase (P09252 whole entry): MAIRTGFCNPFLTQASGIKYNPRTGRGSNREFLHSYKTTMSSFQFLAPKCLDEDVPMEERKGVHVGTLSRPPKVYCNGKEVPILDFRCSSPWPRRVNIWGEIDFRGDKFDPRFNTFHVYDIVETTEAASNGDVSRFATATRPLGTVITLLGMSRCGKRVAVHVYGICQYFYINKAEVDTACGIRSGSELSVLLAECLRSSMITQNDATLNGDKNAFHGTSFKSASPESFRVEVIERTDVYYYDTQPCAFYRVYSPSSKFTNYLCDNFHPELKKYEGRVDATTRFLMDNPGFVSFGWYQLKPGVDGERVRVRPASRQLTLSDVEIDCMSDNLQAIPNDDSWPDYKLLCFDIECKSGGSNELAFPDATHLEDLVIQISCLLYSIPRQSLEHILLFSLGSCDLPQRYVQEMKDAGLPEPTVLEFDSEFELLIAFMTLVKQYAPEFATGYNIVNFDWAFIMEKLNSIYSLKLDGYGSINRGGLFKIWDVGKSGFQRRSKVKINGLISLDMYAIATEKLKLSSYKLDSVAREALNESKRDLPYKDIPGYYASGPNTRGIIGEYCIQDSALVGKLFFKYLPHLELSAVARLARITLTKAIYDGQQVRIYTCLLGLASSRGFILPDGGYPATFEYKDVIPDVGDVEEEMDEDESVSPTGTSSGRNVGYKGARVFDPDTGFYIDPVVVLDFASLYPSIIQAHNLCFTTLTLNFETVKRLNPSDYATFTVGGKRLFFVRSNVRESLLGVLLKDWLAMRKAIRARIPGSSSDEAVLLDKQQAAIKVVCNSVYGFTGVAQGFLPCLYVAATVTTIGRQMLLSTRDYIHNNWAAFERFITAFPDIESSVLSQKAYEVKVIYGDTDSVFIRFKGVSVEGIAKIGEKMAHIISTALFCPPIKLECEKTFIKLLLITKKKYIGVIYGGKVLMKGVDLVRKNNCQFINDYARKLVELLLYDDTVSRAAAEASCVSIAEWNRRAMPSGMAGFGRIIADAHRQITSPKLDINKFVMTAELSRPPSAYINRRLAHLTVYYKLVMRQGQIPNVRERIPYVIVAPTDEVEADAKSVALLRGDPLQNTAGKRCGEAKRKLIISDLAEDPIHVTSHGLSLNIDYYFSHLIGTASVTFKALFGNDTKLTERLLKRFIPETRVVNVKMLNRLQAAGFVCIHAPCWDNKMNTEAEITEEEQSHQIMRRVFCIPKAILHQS
T1 sequence (P08546 whole entry): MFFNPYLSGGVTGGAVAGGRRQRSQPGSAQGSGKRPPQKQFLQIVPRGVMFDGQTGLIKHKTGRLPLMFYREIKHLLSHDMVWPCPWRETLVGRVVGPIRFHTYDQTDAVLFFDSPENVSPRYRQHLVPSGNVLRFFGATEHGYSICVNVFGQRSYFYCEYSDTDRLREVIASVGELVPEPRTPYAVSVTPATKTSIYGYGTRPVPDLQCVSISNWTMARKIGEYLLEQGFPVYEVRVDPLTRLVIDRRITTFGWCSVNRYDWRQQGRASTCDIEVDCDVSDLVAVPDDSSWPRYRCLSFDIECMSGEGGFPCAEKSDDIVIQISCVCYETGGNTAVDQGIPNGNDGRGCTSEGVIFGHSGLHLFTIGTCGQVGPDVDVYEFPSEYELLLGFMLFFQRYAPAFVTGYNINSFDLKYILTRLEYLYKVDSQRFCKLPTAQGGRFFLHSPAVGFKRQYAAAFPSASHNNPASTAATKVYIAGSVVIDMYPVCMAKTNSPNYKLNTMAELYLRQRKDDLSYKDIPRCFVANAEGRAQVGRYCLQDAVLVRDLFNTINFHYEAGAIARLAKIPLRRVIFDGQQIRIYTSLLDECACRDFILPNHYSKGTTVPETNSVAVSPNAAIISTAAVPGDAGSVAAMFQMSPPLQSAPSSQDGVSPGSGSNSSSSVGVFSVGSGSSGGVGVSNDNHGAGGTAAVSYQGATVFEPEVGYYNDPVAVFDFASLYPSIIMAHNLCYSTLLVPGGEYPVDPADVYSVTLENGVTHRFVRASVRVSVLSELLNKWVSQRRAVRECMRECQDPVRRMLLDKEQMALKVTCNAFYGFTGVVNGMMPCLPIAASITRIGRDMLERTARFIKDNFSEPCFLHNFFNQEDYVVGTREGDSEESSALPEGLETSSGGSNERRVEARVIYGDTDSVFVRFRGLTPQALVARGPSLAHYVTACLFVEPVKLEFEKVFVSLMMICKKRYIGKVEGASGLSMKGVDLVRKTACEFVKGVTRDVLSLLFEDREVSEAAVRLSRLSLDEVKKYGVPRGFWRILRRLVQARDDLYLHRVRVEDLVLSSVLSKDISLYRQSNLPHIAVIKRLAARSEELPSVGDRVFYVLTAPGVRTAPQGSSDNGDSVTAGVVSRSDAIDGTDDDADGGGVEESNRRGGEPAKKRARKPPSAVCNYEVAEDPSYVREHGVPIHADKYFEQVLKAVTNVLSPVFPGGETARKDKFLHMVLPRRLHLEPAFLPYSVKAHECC

| Compound | melting point | pIC50 (VZV polymerase) | pIC50 (HCMV polymerase; [1]) | pIC50 (HSV polymerase) | pIC50 (HCMV polymerase) |
| --- | --- | --- | --- | --- | --- |
| CN(Cc1cc2c(=O)c(C(=O)NCc3ccc(Cl)cc3)cn(C)c2s1)CC(O)c1cccnc1 (racemic) [Example 1, rac-N-(4-Chlorobenzyl)-2-(((2-hydroxy-2-pyridin-3-ylethyl)(methyl)amino)methyl)-7-methyl-4-oxo-4,7-dihydrothieno[2,3-b]pyridine-5-carboxamide] | 160 to 162 °C | 6.66 | 6.80 | 6.24 | – |
| CN(Cc1cc2c(=O)c(C(=O)NCc3ccc(Cl)cc3)cn(C)c2s1)CC(O)c1ccncc1 (racemic) [Example 3, rac-N-(4-Chlorobenzyl)-2-(((2-hydroxy-2-pyridin-4-ylethyl)(methyl)amino)methyl)-7-methyl-4-oxo-4,7-dihydrothieno[2,3-b]pyridine-5-carboxamide] | 185 to 188 °C | 6.66 | 6.70 | 6.33 | – |
| CN(Cc1cc2c(=O)c(C(=O)NCc3ccc(Cl)cc3)cn(C)c2s1)CC(O)c1ccccn1 (racemic) [Example 4, rac-N-(4-Chlorobenzyl)-2-(((2-hydroxy-2-pyridin-2-ylethyl)(methyl)amino)methyl)-7-methyl-4-oxo-4,7-dihydrothieno[2,3-b]pyridine-5-carboxamide] | 145 to 147 °C | 7.52 | 7.05 | 7.00 | – |
| Cc1cccc(C(O)CN(C)Cc2cc3c(=O)c(C(=O)NCc4ccc(Cl)cc4)cn(C)c3s2)n1 (racemic) [Example 6, rac-N-(4-Chlorobenzyl)-2-(((2-hydroxy-2-(6-methylpyridin-2-yl)ethyl)(methyl)amino)methyl)-7-methyl-4-oxo-4,7-dihydrothieno[2,3-b]pyridine-5-carboxamide] | 158 to 162 °C | – | 6.21 | – | – |
| CN(Cc1cc2c(=O)c(C(=O)NCc3ccc(Cl)cc3)cn(C)c2s1)CC(O)c1cnccn1 (racemic) [Example 10, rac-N-(4-Chlorobenzyl)-2-(((2-hydroxy-2-pyrazin-2-ylethyl)(methyl)amino)methyl)-7-methyl-4-oxo-4,7-dihydrothieno[2,3-b]pyridine-5-carboxamide] | – | 7.30 | 6.96 | 7.00 | – |
| CCCn1cc(C(=O)NCc2ccc(Cl)cc2)c(=O)c2cc(CN(C)CC(O)c3ccccn3)sc21 (racemic) [Example 15, rac-N-(4-Chlorobenzyl)-7-propyl-2-(((2-hydroxy-2-pyridin-2-ylethyl)(methyl)amino)methyl)-4-oxo-4,7-dihydrothieno[2,3-b]pyridine-5-carboxamide] | – | – | 5.97 | – | – |
| CCCn1cc(C(=O)NCc2ccc(Cl)cc2)c(=O)c2cc(CN(C)CC(O)c3cnccn3)sc21 (racemic) [Example 16, rac-N-(4-Chlorobenzyl)-2-(((2-hydroxy-2-pyrazin-2-ylethyl)(methyl)amino)methyl)-4-oxo-7-propyl-4,7-dihydrothieno[2,3-b]pyridine-5-carboxamide] | – | 6.68 | 6.51 | 5.96 | – |
| CN(Cc1cc2c(=O)c(C(=O)NCc3ccc(Cl)cc3)cn(CCCO)c2s1)CC(O)c1ncccn1 (racemic) [Example 19, rac-N-(4-Chlorobenzyl)-7-(3-hydroxypropyl)-2-(((2-hydroxy-2-pyrimidin-2-ylethyl)(methyl)amino)methyl)-4-oxo-4,7-dihydrothieno[2,3-b]pyridine-5-carboxamide] | – | – | – | – | 5.95 |
| COCCn1cc(C(=O)NCc2ccc(Cl)cc2)c(=O)c2cc(CN(C)CC(O)c3cnccn3)sc21 (racemic) [Example 21, rac-N-(4-Chlorobenzyl)-2-(((2-hydroxy-2-pyrazin-2-ylethyl)(methyl)amino)methyl)-7-(2-methoxyethyl)-4-oxo-4,7-dihydrothieno[2,3-b]pyridine-5-carboxamide] | 122 to 123 °C | – | 5.99 | – | – |
| CN(Cc1cc2c(=O)c(C(=O)NCc3ccc(Cl)cc3)cn(C)c2s1)C[C@@H](O)c1ncccn1 [Example 9] | – | 7.52 | 7.30 | 6.89 | – |
| CN(Cc1cc2c(=O)c(C(=O)NCc3ccc(Cl)cc3)cn(C)c2s1)C[C@@H](O)c1cnccn1 [Example 11, N-(4-Chlorobenzyl)-2-((((2R)-2-hydroxy-2-pyrazin-2-ylethyl)(methyl)amino)methyl)-7-methyl-4-oxo-4,7-dihydrothieno[2,3-b]pyridine-5-carboxamide] | – | 7.70 | 7.40 | 7.10 | – |
| CN(Cc1cc2c(=O)c(C(=O)NCc3ccc(Cl)cc3)cn(C)c2s1)CC(O)c1cccnn1 (stereo not drawn) [Example 12] | – | 6.64 | 6.51 | 6.08 | – |
| CN(Cc1cc2c(=O)c(C(=O)NCc3ccc(Cl)cc3)cn(CC(O)CO)c2s1)C[C@@H](O)c1ccccn1 (stereo partly drawn) [Example 17, N-(4-Chlorobenzyl)-7-(2,3-dihydroxypropyl)-2-((((2R)-2-hydroxy-2-pyridin-2-ylethyl)(methyl)amino)methyl)-4-oxo-4,7-dihydrothieno[2,3-b]pyridine-5-carboxamide] | – | – | 5.66 | – | – |
| CN(Cc1cc2c(=O)c(C(=O)NCc3ccc(Cl)cc3)cn(CCCO)c2s1)C[C@@H](O)c1ccccn1 [Example 18, N-(4-Chlorobenzyl)-7-(3-hydroxypropyl)-2-((((2R)-2-hydroxy-2-pyridin-2-ylethyl)(methyl)amino)methyl)-4-oxo-4,7-dihydrothieno[2,3-b]pyridine-5-carboxamide] | – | – | – | – | 5.89 |
| CN(Cc1cc2c(=O)c(C(=O)NCc3ccc(Cl)cc3)cn(CCO)c2s1)C[C@@H](O)c1ccccn1 [Example 20, N-(4-Chlorobenzyl)-7-(2-hydroxyethyl)-2-((((2R)-2-hydroxy-2-pyridin-2-ylethyl)(methyl)amino)methyl)-4-oxo-4,7-dihydrothieno[2,3-b]pyridine-5-carboxamide] | – | – | 5.94 | – | – |
| CN(Cc1cc2c(=O)c(C(=O)NCc3ccc(Cl)cc3)cn(CCOCCO)c2s1)C[C@@H](O)c1cnccn1 [Example 22] | – | – | 6.24 | – | – |
| CN(Cc1cc2c(=O)c(C(=O)NCc3ccc(F)cc3)cn(C)c2s1)C[C@@H](O)c1ccccn1 [Example 23, N-(4-Fluorobenzyl)-2-((((2R)-2-hydroxy-2-pyridin-2-ylethyl)(methyl)amino)methyl)-7-methyl-4-oxo-4,7-dihydrothieno[2,3-b]pyridine-5-carboxamide] | – | 6.96 | 6.55 | 6.31 | – |
| CN(Cc1cc2c(=O)c(C(=O)NCc3ccc(C#N)cc3)cn(C)c2s1)C[C@@H](O)c1ccccn1 [Example 24, N(4-Cyanobenzyl)-2-((((2R)-2-hydroxy-2-pyridin-2-ylethyl)(methyl)amino)methyl)-7-methyl-4-oxo-4,7-dihydrothieno[2,3-b]pyridine-5-carboxamide] | 167 to 169 °C | – | 6.64 | – | – |
| CN(Cc1cc2c(=O)c(C(=O)NCc3ccc(Br)cc3)cn(C)c2s1)C[C@@H](O)c1ccccn1 [Example 25, N(4-Bromobenzyl)-2-((((2R)-2-hydroxy-2-pyridin-2-ylethyl)(methyl)amino)methyl)-7-methyl-4-oxo-4,7-dihydrothieno[2,3-b]pyridine-5-carboxamide] | 151 to 153 °C | – | 6.82 | – | – |
| rac-N-(4-Chlorobenzyl)-7-ethyl-2-(((2-hydroxy-2-pyrimidin-2-ylethyl)(methylamino)methyl)-4-oxo-4,7-dihydrothieno[2,3-b]pyridine-5-carboxamide [Example 14] | – | – | 5.92 | – | – |
